Measurements as given in publication PMC9260081, “Design, Synthesis, and Evaluation of Anticonvulsant Activities of New Triazolopyrimidine Derivatives” (Frontiers in Chemistry, 2022).
Read-outs that look alike come from different tables or passages of the source.

Tests used:
[1] = system: PTZ-induced seizures; experiment: Subcutaneous pentylenetetrazole (PTZ) test; format: in vivo, mice; settings: ip; for minimal effective dose / ED50: Mus musculus, mice; for minimal effective dose: dosages 30, 100, 300 mg/kg, read-out: PTZ screening, minimum dose whereby bioactivity was demonstrated in half or more of the mice; for ED50: 95% confidence interval in brackets, read-out: ED50 scPTZ; for PI scPTZ, protective index (TD50/ED50): male, Kunming, mouse, in vivo
Procedure: (§1) Male Kunming mice with weights from 18 to 22 g were used in all the pharmacological experiments. The mice were housed in the standard cages with 10 each, where a controlled temperature (25°C ± 2°C) with a 12 h light/dark cycle was maintained. All animals had free access to food and water. All experiments and procedures involving animals were carried out according to the Guide for the Care and Use of Laboratory Animals (National Academies Press, Washington, D.C., United States). Approval from the local medical ethical committee was obtained before the experiment.
In the PTZ test, mice were subcutaneously administered with PTZ at the dose of 85 mg/kg. At this dose, mice can be elicited a threshold seizure characterized by an episode of clonic spasms and tonic spasms. After being treated with test compounds at doses of 300, 100, and 30 mg/kg, the mice were considered protected if a single episode of clonic spasms of more than 5 s duration was not obtained. The quantitative anticonvulsant activity (ED50) in the PTZ model was determined and calculated with the same method described in the MES test.

[2] = system: ability to maintain equilibrium on rotating rod; experiment: Neurotoxicity screening (rotarod test); format: in vivo; settings: i.p.; for NT screening (rotarod), minimum neurotoxic dose in half or more of the mice: dosages 30, 100, 300 mg/kg
Procedure: as §1
(§2) The rotarod test was used to evaluate the neurotoxicity of the synthesized compounds. Before the formal experiments, mice were trained to climb on a rotating rod of diameter 3.2 cm with the rotation speed of 10 rpm. Test compounds in the three doses were intraperitoneally injected into the trained mice. […] The rough neurotoxic dose was obtained in which mice cannot maintain equilibrium on the rod for at least 1 min. The quantitative neurotoxic dose (TD50) of the test compounds was measured and calculated with the same method described in the MES test.

[3] = system: MES-induced seizures; experiment: Maximal electroshock seizure (MES) test; format: in vivo, mice; settings: for minimal effective dose / ED50: Mus musculus, ip, mice; for minimal effective dose: dosages 30, 100, 300 mg/kg, read-out: MES screening, minimum dose whereby bioactivity was demonstrated in half or more of the mice; for ED50: 95% confidence interval in brackets, read-out: ED50 MES; for PI MES, protective index (TD50/ED50): TD50 rotarod / ED50 MES, mice i.p.
Procedure: as §1
In the MES test, mice were subjected to ear stimulation using a 0.2 s 60-Hz 50-mA alternating current to elicit seizures. Tonic hind limb extension was considered as the seizure occurring, and the vanishing of tonic hind limb extension indicates the protection against the MES-induced seizures. Mice were injected intraperitoneally with test compounds at doses of 300, 100, and 30 mg/kg to evaluate their general anticonvulsant activity. Half and 4 h intervals were chosen to test the anti-MES activity. […] A series of doses of the tested compounds were injected into the mice with 10 in one group.

[4] = Neurotoxicity screening (rotarod test); format: in vivo; settings: male, Kunming, mouse, in vivo, ip; rotarod, mice; 95% confidence interval in brackets
Procedure: as §1, §2

SMILES | minimal effective dose ([1]; 0.5 h after injection) [mg/kg] | minimal effective dose ([1]; 4 h after injection) [mg/kg] | NT screening (rotarod), minimum neurotoxic dose in half or more of the mice ([2]; 0.5 h after injection) | NT screening (rotarod), minimum neurotoxic dose in half or more of the mice ([2]; 4 h after injection) | minimal effective dose ([3]; 0.5 h after injection) [mg/kg] | minimal effective dose ([3]; 4 h after injection) [mg/kg] | ED50 [1] [mg/kg] | PI scPTZ, protective index (TD50/ED50) [1] | TD50 at 30 min [4] [mg/kg] | ED50 [3] [mg/kg] | PI MES, protective index (TD50/ED50) [3] | TD50 ([2]; rotarod, mice, 95% confidence interval in brackets)
c1ccc(-c2ccnc3ccnn23)cc1 [Compound 4a, 7-Phenylpyrazolo[1,5-a]pyrimidine] | > 300 | > 300 | — (A dash indicates the absence of anticonvulsant activity and neurotoxicity at the maximum dose administered (300 mg/kg)) | — (A dash indicates the absence of anticonvulsant activity and neurotoxicity at the maximum dose administered (300 mg/kg)) | > 300 | > 300 |  |  |  |  |  | 
Fc1ccc(-c2ccnc3ccnn23)cc1 [Compound 4b, 7-(4-Fluorophenyl)pyrazolo[1,5-a]pyrimidine] | > 300 | > 300 | — (A dash indicates the absence of anticonvulsant activity and neurotoxicity at the maximum dose administered (300 mg/kg)) | — (A dash indicates the absence of anticonvulsant activity and neurotoxicity at the maximum dose administered (300 mg/kg)) | > 300 | > 300 |  |  |  |  |  | 
Clc1ccccc1-c1ccnc2ccnn12 [Compound 4c, 7-(2-Chlorophenyl)pyrazolo[1,5-a]pyrimidine] | > 300 | > 300 | — (A dash indicates the absence of anticonvulsant activity and neurotoxicity at the maximum dose administered (300 mg/kg)) | — (A dash indicates the absence of anticonvulsant activity and neurotoxicity at the maximum dose administered (300 mg/kg)) | > 300 | > 300 |  |  |  |  |  | 
Clc1ccc(-c2ccnc3ccnn23)cc1 [Compound 4d, 7-(4-Chlorophenyl)pyrazolo[1,5-a]pyrimidine] | > 300 | > 300 | — (A dash indicates the absence of anticonvulsant activity and neurotoxicity at the maximum dose administered (300 mg/kg)) | — (A dash indicates the absence of anticonvulsant activity and neurotoxicity at the maximum dose administered (300 mg/kg)) | > 300 | > 300 |  |  |  |  |  | 
Clc1ccc(-c2ccnc3ccnn23)c(Cl)c1 [Compound 4e, 7-(2,4-Dichlorophenyl)pyrazolo[1,5-a]pyrimidine] | 300 | > 300 | — (A dash indicates the absence of anticonvulsant activity and neurotoxicity at the maximum dose administered (300 mg/kg)) | — (A dash indicates the absence of anticonvulsant activity and neurotoxicity at the maximum dose administered (300 mg/kg)) | > 300 | > 300 |  |  |  |  |  | 
Brc1ccc(-c2ccnc3ccnn23)cc1 [Compound 4f, 7-(4-Bromophenyl)pyrazolo[1,5-a]pyrimidine] | > 300 | > 300 | — (A dash indicates the absence of anticonvulsant activity and neurotoxicity at the maximum dose administered (300 mg/kg)) | — (A dash indicates the absence of anticonvulsant activity and neurotoxicity at the maximum dose administered (300 mg/kg)) | > 300 | > 300 |  |  |  |  |  | 
O=[N+]([O-])c1ccc(-c2ccnc3ccnn23)cc1 [Compound 4g, 7-(4-Nitrophenyl)pyrazolo[1,5-a]pyrimidine] | > 300 | > 300 | — (A dash indicates the absence of anticonvulsant activity and neurotoxicity at the maximum dose administered (300 mg/kg)) | — (A dash indicates the absence of anticonvulsant activity and neurotoxicity at the maximum dose administered (300 mg/kg)) | > 300 | > 300 |  |  |  |  |  | 
Cc1ccc(-c2ccnc3ccnn23)cc1 [Compound 4h, 7-(P-tolyl)pyrazolo[1,5-a]pyrimidine] | 300 | > 300 | — (A dash indicates the absence of anticonvulsant activity and neurotoxicity at the maximum dose administered (300 mg/kg)) | — (A dash indicates the absence of anticonvulsant activity and neurotoxicity at the maximum dose administered (300 mg/kg)) | > 300 | > 300 |  |  |  |  |  | 
COc1ccc(-c2ccnc3ccnn23)cc1 [Compound 4i, 7-(4-Methoxyphenyl)pyrazolo[1,5-a]pyrimidine] | 300 | > 300 | — (A dash indicates the absence of anticonvulsant activity and neurotoxicity at the maximum dose administered (300 mg/kg)) | — (A dash indicates the absence of anticonvulsant activity and neurotoxicity at the maximum dose administered (300 mg/kg)) | > 300 | > 300 |  |  |  |  |  | 
CCCOc1ccc(-c2ccnc3ncnn23)cc1 [Compound 6a, 7-(4-Propoxyphenyl)-[1,2,4]triazolo[1,5-a]pyrimidine] | 300 | > 300 | — (A dash indicates the absence of anticonvulsant activity and neurotoxicity at the maximum dose administered (300 mg/kg)) | — (A dash indicates the absence of anticonvulsant activity and neurotoxicity at the maximum dose administered (300 mg/kg)) | 300 | > 300 |  |  |  |  |  | 
CCCCOc1ccc(-c2ccnc3ncnn23)cc1 [Compound 6b, 7-(4-Butoxyphenyl)-[1,2,4]triazolo[1,5-a]pyrimidine] | 300 | > 300 | — (A dash indicates the absence of anticonvulsant activity and neurotoxicity at the maximum dose administered (300 mg/kg)) | — (A dash indicates the absence of anticonvulsant activity and neurotoxicity at the maximum dose administered (300 mg/kg)) | 100 | > 300 |  |  |  |  |  | 
CCCCCOc1ccc(-c2ccnc3ncnn23)cc1 [Compound 6c, 7-(4-(Pentyloxy)phenyl)-[1,2,4]triazolo[1,5-a]pyrimidine] | 30 | > 300 | — (A dash indicates the absence of anticonvulsant activity and neurotoxicity at the maximum dose administered (300 mg/kg)) | — (A dash indicates the absence of anticonvulsant activity and neurotoxicity at the maximum dose administered (300 mg/kg)) | 30 | 300 | 23.7 | 16.0 | 380 | 25.3 | 15.0 | 
c1ccc(COc2ccc(-c3ccnc4ncnn34)cc2)cc1 [Compound 6e, 7-(4-(Benzyloxy)phenyl)-[1,2,4]triazolo[1,5-a]pyrimidine] | 30 | > 300 | 300 mg/kg | — (A dash indicates the absence of anticonvulsant activity and neurotoxicity at the maximum dose administered (300 mg/kg)) | 30 | 300 | 28.4 | 12.9 | 366 | 38 | 9.6 | 
CCCC(CCC)C(=O)O [Valproate, reference compound] |  |  |  |  |  |  | 149 | 2.8 |  | 264 | 1.6 | 418 (369–450) mg/kg
